Experimental data as given in patent US12110288B2, “MASP-2 inhibitors and methods of use” (Omeros Corporation, priority 2019, dated 2024).
Structures can show the parent of a compound that is named as a salt.

Target: T1, MASP-2 (CCP1-CCP2-SP) (Homo sapiens, UniProt O00187)
T1 construct: 15 μL of Enzyme MASP-2 (CCP1-CCP2-SP) in Assay Buffer
Experiment: Enzymatic Assay for MASP-2
Format: biochemical
Conditions: fluorogenic substrate based on C2 cleavage site, room temperature, 20 mM HEPES pH 7.4
In short: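 Fluorogenic substrate modelled on the C2 cleavage site, run at room temperature in 20 mM HEPES pH 7.4, 140 mM NaCl, 0.1% Tween 20; compounds were added from DMSO serial dilutions before enzyme and substrate. Reactions ran 20 min and were stopped with 0.1 M acetic acid before fluorescence was read. % activity was normalised to DMSO-only and no-enzyme controls; IC50 was taken as Ki, with tight- or slow-binding inhibitors handled separately.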

T1 sequence (O00187 445-686 limits assumed): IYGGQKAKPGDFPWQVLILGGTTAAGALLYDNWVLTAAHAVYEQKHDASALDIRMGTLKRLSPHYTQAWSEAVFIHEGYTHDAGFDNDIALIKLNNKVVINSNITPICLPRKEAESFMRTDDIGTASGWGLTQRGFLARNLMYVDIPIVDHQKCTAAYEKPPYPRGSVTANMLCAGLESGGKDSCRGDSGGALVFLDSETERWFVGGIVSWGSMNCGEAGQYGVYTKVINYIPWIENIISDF
T1 sequence (O00187 298-444 partner limits assumed): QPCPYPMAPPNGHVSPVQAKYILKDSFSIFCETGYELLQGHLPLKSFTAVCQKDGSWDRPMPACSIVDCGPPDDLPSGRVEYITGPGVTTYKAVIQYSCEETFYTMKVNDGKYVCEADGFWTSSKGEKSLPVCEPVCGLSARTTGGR

Compound | Ki
Cn1cc(-c2cnc(NCCc3ccccc3)c(=O)n2CC(=O)NCc2cc3c(s2)CCNC3)cn1 [Compound 78, 2-(6-(1-Methyl-1H-Pyrazol-4-yl)-2-Oxo-3-(Phenethylamino)Pyrazin-1(2H)-yl)-N-((4,5,6,7-Tetrahydrothieno[3,2-c]Pyridin-2-yl)Methyl)Acetamide] | 500 to 2500 nM
Cn1cc(-c2cnc(NCCc3ccccc3)c(=O)n2CC(=O)NCc2ccc3c(c2)CCNC3)cn1 [Compound 80, 2-(6-(1-Methyl-1H-Pyrazol-4-yl)-2-Oxo-3-(Phenethylamino)Pyrazin-1(2H)-yl)-N-((1,2,3,4-Tetrahydroisoquinolin-6-yl)Methyl)Acetamide] | 2500 to 10000 nM
Cn1cc(-c2cnc(NCCc3ccccc3)c(=O)n2CC(=O)NCc2cnc3[nH]cc(Cl)c3c2)cn1 [Compound 81, N-((3-Chloro-1H-Pyrrolo[2,3-b]Pyridin-5-yl)Methyl)-2-(6-(1-Methyl-1H-Pyrazol-4-yl)-2-Oxo-3-(Phenethylamino)Pyrazin-1(2H)-yl)Acetamide] | 2500 to 10000 nM
Cn1cc(-c2cnc(NCCc3ccccc3)c(=O)n2CC(=O)NCc2cnc3scc(Cl)c3c2)cn1 [Compound 82] | 2500 to 10000 nM
O=C(Cn1c(-c2cnn(C3COC3)c2)cnc(NCCc2ccccc2)c1=O)NCc1cc2cnccc2[nH]1 [Compound 90, N-((1H-pyrrolo[3,2-c]pyridin-2-yl)methyl)-2-(6-(1-(oxetan-3-yl)-1H-pyrazol-4-yl)-2-oxo-3-(phenethylamino)pyrazin-1(2H)-yl)acetamide trifluoroacetate] | < 500 nM
C=C(C)c1cccc(-c2cnc(NCCc3ccccc3)c(=O)n2CC(=O)NCc2cc3cnccc3[nH]2)c1 [Compound 91, N-((1H-Pyrrolo[3,2-c]Pyridin-2-yl)Methyl)-2-(2-Oxo-3-(Phenethylamino)-6-(3-(Prop-1-en-2-yl)Phenyl)Pyrazin-1(2H)-yl)Acetamide] | < 500 nM
CC(C)(O)c1cccc(-c2cnc(NCCc3ccccc3)c(=O)n2CC(=O)NCc2cc3cnccc3[nH]2)c1 [Compound 92, N-((1H-Pyrrolo[3,2-c]pyridin-2-yl)methyl)-2-(6-(3-(2-hydroxypropan-2-yl)phenyl)-2-oxo-3-(phenethylamino)pyrazin-1(2H)-yl)acetamide] | < 500 nM
COC(=O)Cc1cccc(-c2cnc(NCCc3ccccc3)c(=O)n2CC(=O)NCc2cc3cnccc3[nH]2)c1 [Compound 93, Methyl 2-(3-(1-(2(((1H-pyrrolo[3,2-c]pyridin-2-yl)methyl)amino)-2-oxoethyl)-6-oxo-5-(phenethylamino)-1,6-dihydropyrazin-2-yl)phenyl)acetate trifluoroacetate] | < 500 nM
O=C(O)Cc1cccc(-c2cnc(NCCc3ccccc3)c(=O)n2CC(=O)NCc2cc3cnccc3[nH]2)c1 [Compound 94, 2-(3-(1-(2-(((1H-Pyrrolo[3,2-c]Pyridin-2-yl)Methyl) Amino)-2-Oxoethyl)-6-Oxo-5-(Phenethylamino)-1,6-Dihydropyrazin-2-yl)Phenyl)Acetic Acid Trifluoroacetate] | < 500 nM
CS(=O)(=O)NCc1cccc(-c2cnc(NCCc3ccccc3)c(=O)n2CC(=O)NCc2cc3cnccc3[nH]2)c1 [Compound 95, N-((1H-Pyrrolo[3,2-c]Pyridin-2-yl)Methyl)-2-(6-(3-(Methylsulfonamidomethyl)Phenyl)-2-Oxo-3-(Phenethylamino)Pyrazin-1(2H)-yl)Acetamide] | < 500 nM
NCc1cccc(-c2cnc(NCCc3ccccc3)c(=O)n2CC(=O)NCc2cc3cnccc3[nH]2)c1 [Compound 96, N-((1H-Pyrrolo[3,2-c]Pyridin-2-yl)Methyl)-2-(6-(3-(Aminomethyl)Phenyl)-2-Oxo-3-(Phenethylamino)Pyrazin-1(2H)-yl)Acetamide] | < 500 nM
O=C(Cn1c(-c2cccc(C(O)C(F)(F)F)c2)cnc(NCCc2ccccc2)c1=O)NCc1cc2cnccc2[nH]1 (stereo not drawn) [Compound 97, N-((1H-Pyrrolo[3,2-c]pyridin-2-yl)methyl)-2-(2-oxo-3-(phenethylamino)-6-(3-(2,2,2-trifluoro-1-hydroxyethyl)phenyl)pyrazin-1(2H)-yl)acetamide] | < 500 nM
O=C(Cn1c(-c2cccc(C3(O)CC3)c2)cnc(NCCc2ccccc2)c1=O)NCc1cc2cnccc2[nH]1 [Compound 98, N-((1H-Pyrrolo[3,2-c]pyridin-2-yl)methyl)-2-(6-(3-(1-hydroxycyclopropyl)phenyl)-2-oxo-3-(phenethylamino)pyrazin-1(2H)-yl)acetamide] | < 500 nM
O=C(Cn1c(-c2cccc(C3(O)COC3)c2)cnc(NCCc2ccccc2)c1=O)NCc1cc2cnccc2[nH]1 [Compound 99, N-((1H-Pyrrolo[3,2-c]pyridin-2-yl)methyl)-2-(6-(3-(3-hydroxyoxetan-3-yl)phenyl)-2-oxo-3-(phenethylamino)pyrazin-1(2H)-yl)acetamide] | < 500 nM
CC(O)c1cccc(-c2cnc(NCCc3ccccc3)c(=O)n2CC(=O)NCc2cc3cnccc3[nH]2)c1 (stereo not drawn) [Compound 100, N-((1H-Pyrrolo[3,2-c]Pyridin-2-yl)Methyl)-2-(6-(3-(1-Hydroxyethyl)Phenyl)-2-Oxo-3-(Phenethylamino)Pyrazin-1(2H)-yl)Acetamide] | < 500 nM
Cn1cc(-c2cnc(NCCc3ccccc3)c(=O)n2CC(=O)NCc2cc3cnccc3[nH]2)cn1 [Compound 101, N-((1H-Pyrrolo[3,2-c]pyridin-2-yl)methyl)-2-(6-(1-methyl-1H-pyrazol-4-yl)-2-oxo-3-(phenethylamino)pyrazin-1(2H)-yl)acetamide] | < 500 nM
O=C(Cn1c(-c2cn[nH]c2)cnc(NCCc2ccccc2)c1=O)NCc1cc2cnccc2[nH]1 [Compound 102, N-((1H-Pyrrolo[3,2-c]pyridin-2-yl)methyl)-2-(2-oxo-3-(phenethylamino)-6-(1H-pyrazol-4-yl)pyrazin-1(2H)-yl)acetamide] | < 500 nM
CC(C)n1cc(-c2cnc(NCCc3ccccc3)c(=O)n2CC(=O)NCc2cc3cnccc3[nH]2)cn1 [Compound 103, N-((1H-Pyrrolo[3,2-c]pyridin-2-yl)methyl)-2-(6-(1-isopropyl-1H-pyrazol-4-yl)-2-oxo-3-(phenethylamino)pyrazin-1(2H)-yl)acetamide] | < 500 nM
Cc1nn(C)cc1-c1cnc(NCCc2ccccc2)c(=O)n1CC(=O)NCc1cc2cnccc2[nH]1 [Compound 104, N-((1H-Pyrrolo[3,2-c]pyridin-2-yl)methyl)-2-(6-(1,3-dimethyl-1H-pyrazol-4-yl)-2-oxo-3-(phenethylamino)pyrazin-1(2H)-yl)acetamide] | < 500 nM
Cn1nccc1-c1cnc(NCCc2ccccc2)c(=O)n1CC(=O)NCc1cc2cnccc2[nH]1 [Compound 105, N-((1H-Pyrrolo[3,2-c]pyridin-2-yl)methyl)-2-(6-(1-methyl-1H-pyrazol-5-yl)-2-oxo-3-(phenethylamino)pyrazin-1(2H)-yl)acetamide] | < 500 nM

Further lines, results first:

Ki | Compound
< 500 nM | Cc1cc2[nH]c(CNC(=O)Cn3c(-c4ccccc4)cnc(NC4(c5ccccc5)CC4)c3=O)cc2cn1 [Compound 76, N-((6-Methyl-1H-pyrrolo[3,2-c]pyridin-2-yl)methyl)-2-(2-oxo-6-phenyl-3-((1-phenylcyclopropyl)amino)pyrazin-1(2H)-yl)acetamide trifluoroacetate]
< 500 nM | COc1ccc(CNc2ncc(-c3ccccc3)n(CC(=O)NCc3cc4cnc(C)cc4[nH]3)c2=O)cc1 [Compound 77, 2-(3-((4-Methoxybenzyl)amino)-2-oxo-6-phenylpyrazin-1(2H)-yl)-N-((6-methyl-1H-pyrrolo[3,2-c]pyridin-2-yl)methyl)acetamide trifluoroacetate]
< 500 nM | Cn1cc(-c2cnc(NCCc3ccccc3)c(=O)n2CC(=O)NCc2cc3c(s2)CNCC3)cn1 [Compound 79]
< 500 nM | O=C(Cn1c(-c2ccccc2)cnc(NCCc2ccccc2)c1=O)NCc1cc2c(s1)CNCC2 [Compound 83, 2-(2-Oxo-3-(Phenethylamino)-6-Phenylpyrazin-1(2H)-yl)-N-((4,5,6,7-Tetrahydrothieno[2,3-c]Pyridin-2-yl)Methyl)Acetamide]
< 500 nM | Cc1nc(N)ccc1CNC(=O)Cn1c(-c2ccnc(N)c2)cnc(NCCc2ccccc2)c1=O [Compound 84, N-((6-Amino-2-Methylpyridin-3-yl)Methyl)-2-(6-(2-Aminopyridin-4-yl)-2-Oxo-3-(Phenethylamino)Pyrazin-1(2H)-yl)Acetamide]
< 500 nM | Cc1nc(N)ccc1CNC(=O)Cn1c(-c2cccc3cc[nH]c23)cnc(NCCc2ccccc2)c1=O [Compound 85]
< 500 nM | O=C(Cn1c(-c2ccccc2F)cnc(NCCc2ccccc2)c1=O)NCc1cc2cnccc2[nH]1 [Compound 86, N-((1H-Pyrrolo[3,2-c]Pyridin-2-yl)Methyl)-2-(6-(2-Fluorophenyl)-2-Oxo-3-(Phenethylamino)Pyrazin-1(2H)-yl)Acetamide Trifluoroacetate]
< 500 nM | Cc1ccccc1-c1cnc(NCCc2ccccc2)c(=O)n1CC(=O)NCc1cc2cnccc2[nH]1 [Compound 87, N-((1H-Pyrrolo[3,2-c]pyridin-2-yl)methyl)-2-(2-oxo-3-(phenethylamino)-6-(o-tolyl)pyrazin-1(2H)-yl)acetamide trifluoroacetate]
< 500 nM | O=C(Cn1c(-c2cccc(CO)c2)cnc(NCCc2ccccc2)c1=O)NCc1cc2cnccc2[nH]1 [Compound 88, N-((1H-Pyrrolo[3,2-c]pyridin-2-yl)methyl)-2-(6-(3-(hydroxymethyl)phenyl)-2-oxo-3-(phenethylamino)pyrazin-1(2H)-yl)acetamide trifluoroacetate]
< 500 nM | O=C(Cn1c(-c2ccc(Cl)s2)cnc(NCCc2ccccc2)c1=O)NCc1cc2cnccc2[nH]1 [Compound 89, N-((1H-Pyrrolo[3,2-c]Pyridin-2-yl)Methyl)-2-(6-(5-Chlorothiophen-2-yl)-2-Oxo-3-(Phenethylamino)Pyrazin-1(2H)-yl)Acetamide]
